Reference: PubChem BioAssay AID1508591
“And” between values parts separate entries of the source, which are not always exact repeats. Equal entries are not always repeated.

Details: rat; liver microsomes; pH 7.4; 15.0 min; 1.0 µM

Compound | half-life
Nc1ncnc2c1C(=O)N(c1ccc(C3CCC(CC(=O)O)CC3)cc1)CCO2 (stereo unspecified) | > 30 min
COc1ccc(NC(=O)c2[nH]c(C)c(C(C)=O)c2C)cc1S(=O)(=O)N(C)C | > 30 min
NC(=O)C1CCN(c2ncc(-c3cccc(N4CCOCC4)c3)s2)CC1 | > 30 min
CC(O)(C#Cc1ccc2c(c1)N(c1nc(N)ncc1Cl)CC2)c1nccs1 (stereo unspecified) | 7.75 min
CCc1cccc(NC(=O)c2c(C)oc3nc(C)nc(N4CCCC4)c23)c1 | 1.41 min
COc1ccnc(NC(=S)N2CCN(c3cccc(C(F)(F)F)n3)CC2)c1 | 12 min
NC(=O)C1CCN(c2nc(-c3ccc(N4CCCCC4)nc3)cs2)CC1 | 17.2 min
Fc1ccc(-c2csc3ncnc(NCc4ccc5c(c4)OCO5)c23)cc1 | 19.2 min
CCOc1ccc(-c2cn3c(n2)sc2cc(C(=O)NCCCN(CC)CC)ccc23)cc1 | > 30 min
O=C(Nc1ccc(-c2ccccc2)cc1)[C@H](Cc1ccc(O[S+](=O)([O-])c2cccc3cnccc23)cc1)N[S+](=O)([O-])c1cccc2cnccc12 | 3.1 min
O=C1Nc2c(Cl)cccc2/C1=C\c1cc(Cl)c(O)c(Cl)c1 | > 30 min
COc1cc([C@@H](CC(=O)O)c2ccc(C)c(CN3C[C@@H](C)Oc4ccccc4S3(=O)=O)c2)cc2nnn(C)c12 | 16 min
NC(=O)C1CCN(c2nc(-c3cccc([N+](=O)[O-])c3)cs2)CC1 | 2.3 min
COc1cc2c(cc1Oc1cccc(N(C)C)c1)NC(=O)C21CCN(c2cnccn2)CC1 | 1.77 min
CCN1C(=O)c2ccccc2S(=O)c2ccc(C(=O)NCc3ccc(OC)cc3)cc21 (stereo unspecified) | 7.8 min
CCNC(=O)N1CCCN(c2ccc(C(=O)NCCc3ccc(Cl)cc3Cl)cc2NC(=O)c2cccc(Cl)c2)CC1 | 0.9 min
COc1ccc(-n2nc(C3CCN(C(=O)Cc4ccc(F)cc4)CC3)[nH]c2=O)cc1 | 7.87 min
CN=C1CN=C(c2ccc[nH]2)c2cc(Cl)ccc2N1 | > 30 min and 23 min
CCc1ccc2oc(=O)cc(CN3CCN(c4ccccc4F)CC3)c2c1 | 3 min
Cc1cccc(C)c1C(=O)Nc1cccc([S+](=O)([O-])N(C)C)c1 | 8 min
O=C(Nc1ccc(Br)cc1)c1ccc(F)c(S(=O)(=O)NC2CCCCCC2)c1 | 3.66 min
O=C(NCCc1ccccn1)C1CC(=O)N(c2n[nH]c3cc(Br)ccc23)C1 (stereo unspecified) | 29.7 min
Cc1c(O)ccc2c1OC(C)(C)CC2 | 3.9 min
Cc1cccc(NCc2ccc(O)c3ncccc23)c1 | 2.2 min
CCOc1ccc(CCNC(=O)c2cc3sccc3n2Cc2ccccc2)c(F)c1OCC | 1.8 min
O=C1CCCC2=C1C(c1[nH]ncc1Cl)N=C(Nc1nc3ccc(F)cc3o1)N2 (stereo unspecified) | 14 min

Compound | half-life
Cc1ccc(C2=CSC(NC(=O)CSc3nncn3C)=NN2)cc1 | 1.8 min
COc1ccc(C2Nc3ccccc3C(=O)N2Cc2ccco2)cc1COc1c(C)cc(NC(C)=O)cc1C (stereo unspecified) | 1.6 min
Cc1noc(-c2cn(C3CCN(C(=O)c4ccc(OC(F)(F)F)cc4)CC3)nn2)n1 | > 30 min
CC#CC(=O)N1CCC[C@H]1c1nc(-c2ccc(C(=O)Nc3ccccn3)cc2)c2c(N)nccn12 | 19.4 min
CN(C)c1ccccc1-c1csc(N2CCC(C(N)=O)CC2)n1 | 9.95 min
O=C(NC[C@H]1Cn2c(-c3ccc(Cl)cc3)cnc2CO1)C1CCCC1 | > 30 min
CN(C)CCOc1ccc(C(=C(CCCl)c2ccccc2)c2ccccc2)cc1 | > 30 min
Cc1ccc(S(=O)(=O)n2cc(C(=O)Nc3nc(-c4ccccc4)cs3)c3ccccc32)cc1 | 23 min
FC(F)(F)c1ccccc1-c1nc(NCc2ccc(-c3cccnc3)cc2)c2ccccc2n1 | 9.18 min
Cc1ccc(NC(=O)C(Cc2ccccc2)NS(=O)(=O)c2cccs2)cc1Cl (stereo unspecified) | 1.12 min
O=C(NCc1ccccc1)c1nc(S(=O)(=O)Cc2ccc(F)cc2)ncc1Cl | 1.98 min
CCOc1ccc(CCNC(=O)c2cc3cnccc3n2Cc2cccc(C)n2)cc1OCC | 29 min
COc1ncc(-c2n[nH]c3c2CC(=O)N(c2ccccc2)C3)cn1 | > 30 min
O=C(NC1CCCc2c1cnn2-c1ccc(F)cc1F)c1ccc(C2(C(F)(F)F)N=N2)cc1 (stereo unspecified) | > 30 min
CCOC(=O)c1csc(NC(=O)c2ccncc2NS(=O)(=O)c2ccc(C)cc2)n1 | 1.9 min
CCOc1cc2c(cc1OCC)CN(C(=O)c1cc3sccc3n1Cc1ccccc1)CC2 | 2.8 min
Oc1ccc(-c2nc(C3CC3)nc3c2CCN(CC2CCCCC2)CC3)cc1 | 5.28 min
Cc1ccc(S(=O)(=O)Nc2cnccc2C(=O)Nc2nc(-c3ccco3)cs2)cc1 | 1.9 min
COc1cccc(O)c1CNc1ccc(S(=O)(=O)Nc2nccs2)cc1 | 8.9 min
Oc1cccc(-c2nc(N3CCOCC3)c3oc4ncccc4c3n2)c1 | 21.8 min
COc1ccc(-c2nc3ccccc3c(=O)n2Cc2ccccc2)cc1COc1ccc(NC(C)=O)cc1 | 3.16 min
COc1ccnc(NC(=S)N2CCN(c3ccc(Cl)c(Cl)c3)CC2)c1 | 20 min
O=C(NC1CCCN(c2cc(-c3ccc(F)cc3)[nH]n2)C1)c1ccc2ncccc2c1 (stereo unspecified) | 16.2 min
CC(Nc1nc(N2CCN(S(C)(=O)=O)CC2)nc2ccccc12)c1ccccc1 (stereo unspecified) | 8.03 min
CS(=O)(=O)c1ccc(-c2cnc(NCc3ccco3)n3cnnc23)cc1 | > 30 min
Cc1cnc(-c2ccccc2C(F)F)nc1NCc1ccc(-c2cccnc2)cc1 | 8.1 min

Compound | half-life
Cc1ccc(-c2cc(C(=O)Nc3ccc(C#N)cc3)c3ccccc3n2)cc1C | > 30 min
CN(C)c1cc(-c2nc(Nc3ccc(F)c(F)c3)c3ccccc3n2)ccn1 | 13 min
COc1cccc(C(=O)Nc2ccc3c(N4CCOCC4)ncnc3c2)c1 | 27.3 min
O=S(=O)(Nc1ccccc1)c1ccc(NCc2ccc(Br)cc2O)cc1 | 2 min
CN1C(=O)c2ccccc2[S@](=O)c2ccc(C(=O)NCCN3CCCC3)cc21 | > 30 min
O=c1[nH]c(N2CCOCC2)nc2c1CCN(Cc1ccc(Cl)cc1F)CC2 | > 30 min
Cc1ccc(S(=O)(=O)Nc2cc(C(=O)Nc3nc(-c4ccccc4)cs3)ccn2)cc1 | > 30 min
CC1CCc2ccc(F)cc2N1S(=O)(=O)c1cccs1 (stereo unspecified) | 2.7 min
Cc1ccc(-c2nc(C)c(C(=O)Nc3ccc4c(c3)C(=O)N3CCC[C@H]3C(=O)N4)s2)cc1 | 27.2 min
Cc1ccc(S(=O)(=O)N2CCN(C(=O)c3cc4c(s3)CCC4)CC2)cc1 | 1.58 min
CC(C)(C)c1ccc(C(=O)Nc2ccc3c(c2)CCCN3C(=O)c2cccs2)cc1 | 2.33 min
COc1cccc2c1CCCC2CCCN1CCN(C2CCCCC2)CC1 (stereo unspecified) | 3.39 min
N#Cc1ccc(NS(=O)(=O)c2ccc(NC(=O)Cc3ccc(F)c(Cl)c3)cc2)cc1 | > 30 min
COc1ccc(N2Cc3cccc(C(=O)Nc4ccc(C(C)C)cc4)c3C2=O)cc1 | > 30 min
CCOc1ccc(NC(=O)CSC2=Nc3ccccc3C3=NC(CC(=O)NCc4cccs4)C(=O)N23)cc1 (stereo unspecified) | 4.16 min
Cc1ccc(S(=O)(=O)Nc2ccc(Cl)c(C(=O)Nc3nc(-c4ccccc4)cs3)c2)cc1 | 18 min
CCOC(=O)c1ccc(NC2CCCCC2)c(N)c1 | 2.5 min
O=C(NC1CC1)c1nc(-c2cccnc2)c2ccccn12 | 21.8 min
COC(=O)CNC(=O)c1nc(-c2ccc([S+](C)(=O)[O-])cc2)c2cnccn12 | > 30 min
Cc1ccnc(NC(=S)N2CCN(c3ccc(Cl)c(Cl)c3)CC2)c1 | 24 min
O=S(=O)(Nc1cccc2ccccc12)c1ccc(NCc2ccc(Br)cc2O)cc1 | 7.4 min
COc1ccccc1N1CCN(c2ccc3cc(S(=O)(=O)N4CCCCC4)ccc3n2)CC1 | 2.16 min
O=C(c1ccc(-c2ncc3cnc(-c4ccccc4)cn23)cc1)N1CCS(=O)(=O)CC1 | > 30 min
O=C(NC1CC1)c1ccc(CSCc2ccccc2Cl)o1 | 1.74 min
O=C(Nc1nc(-c2ccccc2)cs1)c1ccncc1NS(=O)(=O)c1ccc(F)cc1F | 6.5 min
COc1ccc2[nH]c(=O)c(-c3noc(-c4ccccc4)n3)cc2c1 | > 30 min

Compound | half-life
NC(=O)c1sc2nc3c(c(-c4cccs4)c2c1N)CCCC3 | 2 min
COc1cc(-c2ccnc3c2c(C)nn3-c2cccc(C(F)(F)F)c2)ccc1O | > 30 min
CCOC(=O)Cc1ccc(NC(=O)n2ncc3cc(Cl)ccc32)cc1 | 2.5 min
CN(C(=O)OC(C)(C)C)[C@@H](Cc1ccc(O[S+](=O)([O-])c2cccc3cnccc23)cc1)C(=O)N1CCN(C(=O)OCc2ccccc2)CC1 | 1.74 min
CC1=C(C(=O)Nc2nnc(-c3ccccc3)s2)C(c2[nH]ncc2Cl)N=C(Nc2nc3ccccc3o2)N1 (stereo unspecified) | 11 min
CCOc1ccc(CCNC(=O)c2cc3sccc3n2Cc2ccc(Cl)c(F)c2)cc1OCC | 1.75 min
Fc1cc(Nc2nc(-c3ccncc3)nc3ccccc23)ccc1-c1ccc2[nH]ncc2c1 | > 30 min
CCOC(=O)c1ccc(N2C(=O)c3n[nH]c(-c4cccs4)c3C2c2ccc(OCC)cc2)cc1 (stereo unspecified) | 5.72 min
NC1CCN(C(=O)C2CCCN(c3nc(-c4ccccc4)nc4c3CCC4)C2)CC1 (stereo unspecified) | > 30 min
CC(C)(C)c1ccc(S(=O)(=O)c2cnc(SCC(=O)Nc3ccc(F)c(Cl)c3)[nH]c2=O)cc1 | 5.92 min
c1ccc2c(N3CCOCC3)nc(-c3ccncc3)nc2c1 | 10 min
Nc1nc2c(s1)C(c1cccc(F)c1F)CC(=O)N2 (stereo unspecified) | > 30 min
COCCNC(=O)c1ccc(Cn2c(=S)[nH]c3cc4c(cc3c2=O)OCO4)cc1 | > 30 min
CCOc1cc(F)c(CCNC(=O)c2cc3sccc3n2Cc2ccccc2)cc1OCC | 1.8 min
[2H]C([2H])(Nc1nc(-c2ccccc2C([2H])(C([2H])([2H])[2H])C([2H])([2H])[2H])ncc1C)c1ccc(-n2ccnn2)cc1 | 13 min
Cc1cc(C)nc(NC(=S)N2CCN(c3cccc(OC(F)F)c3)CC2)c1 | > 30 min
CCOc1ccccc1C(=O)Nc1ccccc1C(=O)Nc1cccc(S(=O)(=O)C(F)(F)F)c1 | > 30 min
Oc1ccc(C(=S)N2CCN(c3cccc(Cl)c3)CC2)cc1 | 1.7 min
CN(C(=O)COC(=O)c1csc(NCc2ccccc2)n1)c1ccccc1 | 1.4 min
Cc1ccc(C(=O)Nc2ccc(CN3CCN(C)CC3)c(C(F)(F)F)c2)cc1C#Cc1cnc2cccnn12 | > 30 min
C=Cc1ccc(Cn2c(C(=O)O)c(CNC3CCCCC3)c3ccc(OC)cc32)cc1 | 7.15 min
O=C1CCCC2=C1C(c1ccccc1Cl)N=C(Nc1nc3ccccc3o1)N2 (stereo unspecified) | 9.38 min
CCN(CC)CCOc1ccc(Cc2ccccc2)cc1 | 1.73 min
